In PMC8213057, “Targeting ALK2: An Open Science Approach to Developing Therapeutics for the Treatment of Diffuse Intrinsic Pontine Glioma” (Journal of Medicinal Chemistry, 2020):

What was measured:
PKG1a = target: T1, PKG1a (Homo sapiens, UniProt Q13976); conditions: 1 μM; Run 1, Run 2
T1 sequence (Q13976 1-671): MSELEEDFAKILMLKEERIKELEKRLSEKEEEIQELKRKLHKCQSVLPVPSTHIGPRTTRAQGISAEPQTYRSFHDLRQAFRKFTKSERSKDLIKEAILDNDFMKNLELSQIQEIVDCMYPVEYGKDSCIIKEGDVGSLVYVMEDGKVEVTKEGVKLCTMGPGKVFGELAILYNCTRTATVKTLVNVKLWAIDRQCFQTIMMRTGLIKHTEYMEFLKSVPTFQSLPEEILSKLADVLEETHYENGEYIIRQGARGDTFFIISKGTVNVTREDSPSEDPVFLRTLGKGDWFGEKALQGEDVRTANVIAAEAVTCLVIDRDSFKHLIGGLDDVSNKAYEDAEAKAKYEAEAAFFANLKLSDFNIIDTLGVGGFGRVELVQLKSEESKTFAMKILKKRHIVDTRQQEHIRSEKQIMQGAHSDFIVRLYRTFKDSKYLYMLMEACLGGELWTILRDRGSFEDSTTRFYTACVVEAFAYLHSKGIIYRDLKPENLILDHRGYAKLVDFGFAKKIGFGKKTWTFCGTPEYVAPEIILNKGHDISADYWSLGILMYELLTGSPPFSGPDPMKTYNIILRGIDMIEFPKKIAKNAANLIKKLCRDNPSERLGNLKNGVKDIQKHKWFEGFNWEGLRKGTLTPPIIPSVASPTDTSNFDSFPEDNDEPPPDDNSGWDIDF

EPHA8 = target: T2, EPHA8 (Homo sapiens, UniProt P29322); assay: biochemical; conditions: read-out: % enzyme activity, 1 μM; Run 1, Run 2
T2 sequence (P29322 28-1005): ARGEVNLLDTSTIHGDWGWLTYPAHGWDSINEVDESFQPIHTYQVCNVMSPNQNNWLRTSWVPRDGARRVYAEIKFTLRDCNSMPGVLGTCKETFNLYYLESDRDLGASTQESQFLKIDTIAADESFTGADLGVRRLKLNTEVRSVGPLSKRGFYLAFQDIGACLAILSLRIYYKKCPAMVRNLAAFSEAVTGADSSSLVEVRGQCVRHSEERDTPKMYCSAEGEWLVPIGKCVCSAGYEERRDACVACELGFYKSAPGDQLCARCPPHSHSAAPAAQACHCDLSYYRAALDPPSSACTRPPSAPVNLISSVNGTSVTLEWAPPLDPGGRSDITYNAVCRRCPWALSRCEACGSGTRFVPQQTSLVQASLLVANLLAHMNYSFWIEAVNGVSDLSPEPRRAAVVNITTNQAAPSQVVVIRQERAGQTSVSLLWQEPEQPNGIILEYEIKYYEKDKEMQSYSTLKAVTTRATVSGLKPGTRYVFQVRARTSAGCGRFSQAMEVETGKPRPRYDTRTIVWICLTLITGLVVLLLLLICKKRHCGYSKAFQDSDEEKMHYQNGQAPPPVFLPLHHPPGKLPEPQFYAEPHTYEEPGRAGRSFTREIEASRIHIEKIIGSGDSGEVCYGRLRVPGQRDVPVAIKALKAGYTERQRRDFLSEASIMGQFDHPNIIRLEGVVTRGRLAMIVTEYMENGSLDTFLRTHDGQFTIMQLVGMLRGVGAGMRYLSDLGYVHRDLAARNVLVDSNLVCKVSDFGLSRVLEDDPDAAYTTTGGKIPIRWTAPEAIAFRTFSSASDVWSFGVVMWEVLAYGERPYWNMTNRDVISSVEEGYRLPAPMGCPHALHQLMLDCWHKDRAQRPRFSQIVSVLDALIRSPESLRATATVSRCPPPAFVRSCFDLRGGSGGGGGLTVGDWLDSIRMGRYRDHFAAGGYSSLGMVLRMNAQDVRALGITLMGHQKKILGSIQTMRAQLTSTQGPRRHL

EPHB2 = target: T3, EPHB2 (Homo sapiens, UniProt P29323); assay: biochemical; conditions: read-out: % enzyme activity, 1 μM; Run 1, Run 2
T3 sequence (P29323 19-1055): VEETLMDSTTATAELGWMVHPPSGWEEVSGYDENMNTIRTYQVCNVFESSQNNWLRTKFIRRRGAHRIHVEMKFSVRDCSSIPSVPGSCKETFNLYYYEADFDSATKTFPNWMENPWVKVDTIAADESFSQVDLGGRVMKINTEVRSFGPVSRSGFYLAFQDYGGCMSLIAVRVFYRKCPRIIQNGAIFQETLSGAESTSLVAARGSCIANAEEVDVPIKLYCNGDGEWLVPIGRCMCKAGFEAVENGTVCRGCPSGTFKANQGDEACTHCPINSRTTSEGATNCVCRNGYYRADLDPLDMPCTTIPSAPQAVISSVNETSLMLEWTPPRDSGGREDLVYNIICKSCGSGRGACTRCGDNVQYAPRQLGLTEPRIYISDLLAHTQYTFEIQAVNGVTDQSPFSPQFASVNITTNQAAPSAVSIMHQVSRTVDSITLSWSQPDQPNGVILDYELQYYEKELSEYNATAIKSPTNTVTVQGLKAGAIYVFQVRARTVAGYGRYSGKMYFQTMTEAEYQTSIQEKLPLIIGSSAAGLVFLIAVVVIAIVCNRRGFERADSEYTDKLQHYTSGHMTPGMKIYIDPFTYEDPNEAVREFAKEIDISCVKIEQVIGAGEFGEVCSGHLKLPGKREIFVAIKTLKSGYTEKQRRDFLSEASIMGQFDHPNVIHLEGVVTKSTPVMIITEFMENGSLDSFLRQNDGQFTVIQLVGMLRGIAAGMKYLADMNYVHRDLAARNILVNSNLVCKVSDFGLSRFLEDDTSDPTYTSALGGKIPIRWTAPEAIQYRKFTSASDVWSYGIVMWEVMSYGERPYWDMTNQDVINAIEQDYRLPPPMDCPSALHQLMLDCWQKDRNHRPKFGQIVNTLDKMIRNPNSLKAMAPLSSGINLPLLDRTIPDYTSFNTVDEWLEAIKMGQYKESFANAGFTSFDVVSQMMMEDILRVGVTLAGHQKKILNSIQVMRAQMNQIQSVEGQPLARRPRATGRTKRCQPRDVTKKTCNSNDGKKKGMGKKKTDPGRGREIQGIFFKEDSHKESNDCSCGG

| SMILES | % enzyme activity (PKG1a) | remaining activity at 1 µM (EPHA8) | remaining activity at 1 µM (EPHB2) |
| --- | --- | --- | --- |
| COc1cc(-c2cncc(-c3ccc(N4CCN(C)CC4)cc3)c2C)cc(F)c1C(N)=O [Compound 26a, 2-Fluoro-6-methoxy-4-(4-methyl-5-(4-(4-methylpiperazin-1-yl)phenyl)pyridin-3-yl)benzamide] | 97.81% | 95.3% | 93.9% |
| COc1cc(-c2cncc(-c3ccc(N4C[C@@H](C)N(C)[C@@H](C)C4)cc3)c2C)cc(F)c1C(N)=O [Compound 26c, 2-Fluoro-6-methoxy-4-(4-methyl-5-(4-((3R,5S)-3,4,5-trimethylpiperazin-1-yl)phenyl)pyridin-3-yl)benzamide] | 101.45% | 97.5% | 98.8% |
